Consider 1 compound from patent publication US20240139280A1, “USE OF HIF-1-ALPHA INHIBITORS IN CANCER IMMUNOTHERAPY” (ONCOC4, INC., priority 2021, published 2024).

Assay [1] deals with E0771 tumor microenvironment. Description: Flow cytometry of dissociated E0771 tumors (tumor cells, myeloid cells, TILs). Format: in vivo, C57BL/6 mice. A general note: In flow cytometry, cells or beads pass a laser one at a time.
The next assay has as its system leukemia stem cells. Particulars: Wang et al., 2011; cited from earlier work.
The test system of assay [2] is E0771 tumor microenvironment. The experiment in a line: Flow cytometry of dissociated E0771 tumors (tumor cells, myeloid cells, TILs). Format: in vivo, C57BL/6 mice. Here is the method:
FIGS. 6A-D. E0771 cells (0.5×10^6) were orthotopically transplanted into C57BL/6 mice (day 0). The mice received treatment with vehicle, echinomycin (LEM, 0.25 mg/kg/dose), anti-CTLA-4 mAb (9D9, 0.2 mg/mouse/injection), or their combination on days 6, 8, 10, and 12, and were euthanized on day 14. The tumors were dissociated and analyzed by flow cytometry to quantitate PD-L1 expression on tumor cells (gated on Singlets/Live_CD45^−) (FIG. 6A), M-MDSCs (gated on Singlets/Live_CD45^+/CD11b^+CD11c^−/Ly6ChighLy6G^−) (FIG. 6B), PMN-MDSCs (gated on Singlets/Live_CD45^+/CD11b^+CD11c^−/Ly6CInt.Ly6G^+) (FIG. 6C), or CD11c^+TAMs (gated on Singlets/Live_CD45^+/CD11b^+CD11c^+) (FIG. 6D). Upper panels show representative histograms of PD-L1 staining and lower panels show aggregate data from individual mice, pooled from three independent experiments (n=5 mice/group/experiment). Data shown are mean±SEM of PD-L1 MFI. Statistics were determined by one-way ANOVA with Sidak's multiple comparisons test (FIG. 6A), or by two-tailed unpaired t-tests (FIGS. 6B-D). FIGS. 6E-G. Echinomycin treatment reprograms the TME. Dissociated E0771 tumors were obtained from C57BL/6 mice treated with different therapies (n=5 mice/group), as described in FIGS. 6A-D. Single cell suspension were cultured for 4 hours with PMA+ionomycin+Golgi stop, surface stained, and then intracellular stained for IFNγ (for quantitation of Th1 and Tc1 cells) or surface stained for PD-L1. FIG. 6E. IFNγ expression in CD8+tumor-infiltrating lymphocytes (TILs) (gated on Singlets/Live_CD45^+/CD3^+/CD8^+CD4^−). […] FIG. 6F. IFNγ expression in the CD4^+ TILs (gated on Singlets/Live_CD45^+/CD3^+/CD8^−CD4^+). As in FIG. 6E, except that CD4 TIL were analyzed.
FIG. 6G. MHCII expression on CD11c^+ TAMs (gated on Singlets/Live_CD45^+/CD11b^+CD11c^+).
FIGS. 9A-H. C57BL/6 mice received E0771 cells (0.5×10^6/mouse) on day 0 followed by treatment with vehicle, echinomycin (LEM, 0.25 mg/kg/dose), anti-CTLA-4 (9D9, 0.2 mg/mouse/dose), or 9D9+LEM on days 6, 8, and 10. On day 14, tumors were analyzed by flow cytometry. […] Data are presented as the ±SEM of each group (n=5/group), analyzed by unpaired two-tailed Student's t-test and are representative of two experiments. FIGS. 9A-B. Frequencies of TILs expressing PD-1. FIGS. 9C-D. Frequencies of annexin V^+ CD8 or CD4 TILs. FIGS. 9E-F. Frequencies of CD8 TILs expressing granzyme B or perforin. FIGS. 9G-H. Granzyme B and perforin expression in CD4 TILs. FIG. 9I. Effect of depletion of CD4, CD8, or NK cells on tumor growth inhibition by 9D9+LEM in syngeneic E0771 model. C57BL/6 mice received E0771 cells (0.5×10^6/mouse) on day 0. On day 5, the mice were randomized to receive depletory antibodies (500 μg of anti-CD4 (GK1.5), anti-CD8 (YTS169.4), anti-NK1.1 (PK136), or isotype ctrl). All groups received 9D9 (200 ug) on day 6, and LEM (250 ug/kg) on days 6, 8, and 10. Mice received supplemental dose of depletory antibodies (200 μg) on days 8 and 10. The mean±SEM tumor volumes are plotted on the y axes for each group (n=5/group) and analyzed by two-way ANOVA. Representative data shown for one of two experiments.
This is another data set of the same source.

For assay [3], the system named is PD-L1 expression in 4T1 cells. The experiment in a line: PD-L1 expression in 4T1 cells by flow cytometry. Particulars: normoxia, echinomycin 0.45 nM, 48 hours. Format: cell-based, murine.
Where [4] appears, read: with or without anti-CTLA-4 therapy.

Structures are written as SMILES.

For the compound `CSC1SC[C@H]2C(=O)N(C)[C@@H](C(C)C)C(=O)OC[C@@H](NC(=O)c3cnc4ccccc4n3)C(=O)N[C@@H](C)C(=O)N(C)[C@@H]1C(=O)N(C)[C@@H](C(C)C)C(=O)OC[C@@H](NC(=O)c1cnc3ccccc3n1)C(=O)N[C@@H](C)C(=O)N2C` (stereo in doubt) [echinomycin, N,N′-(2,4,12,15,17,25-hexamethyl-11,24-bis(1-methylethyl)-27-(methylthio)-3,6,10,13,16,19,23,26-octaoxo-9,22-dioxa-28-thia-2,5,12,15,18,25-hexaazabicyclo(12.12.3)nonacosane-7,20-diyl)bis(2-quinoxalinecarboxamide)], in assay [1] (Hif1α conditional knockout in T lineages), the “inhibition of PD-L1 on tumor cells in mice with conditional knockout of Hif1α in T cells” value was “preserved”. The “CD3 TIL infiltration into hypoxic areas of the tumors” value in assay [1] (echinomycin-treated mice) is “increase in CD3 TIL infiltration into hypoxic areas”. In addition, the “elimination of leukemia stem cells” value with leukemia stem cells was “effectively eliminated leukemia stem cells”. The “frequencies of tumor-infiltrated lymphocytes or myeloid subsets” value in assay [2] (E0771 tumors) was “did not significantly impact”. For the same compound, in assay [2] (compared to vehicle, echinomycin added to 9D9), the “apoptotic (annexin V) CD8 TILs” value is “appeared to repress this effect”. In assay [2] (compared to vehicle, echinomycin added to anti-CTLA-4), the “PD-1 expression on CD8 TILs” value is recorded as “reversed”. Besides, in assay [2] (setting [4]), the “PD-L1 expression on CD11b+CD11c+ double-positive cells” value is reported as “significantly reduced PD-L1 expression”, the “PD-L1 expression on PMN-MDSCs” value is “significantly reduced PD-L1 expression” and the “PD-L1 expression on tumor-infiltrated monocytic MDSCs (M-MDSC)” value is listed as “significantly reduced PD-L1 expression”. Further, in assay [2] (with or without anti-CTLA-4 therapy, LEM 0.25 mg/kg/dose), the “PD-L1 expression on tumor cells” value is “significantly reduced PD-L1 expression”. For the same compound, the PD-L1 protein entry in assay [3] was “reduced PD-L1 protein”.
